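Tested at 5 concentrations; 48 h exposure; 96-well plates; endpoints linearly interpolated, else capped at highest concentration. TGI: total growth inhibition.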
Legend:
Assay in all cases: inhibition of tumour cell growth, NCI panel, 48 h
CAKI-1 renal = test system: CAKI-1 renal
HOP-62 NSCLC = test system: HOP-62 NSCLC
HOP-92 NSCLC = test system: HOP-92 NSCLC
HT29 colon = test system: HT29 colon
KM12 colon = test system: KM12 colon
NCI-H23 lung = test system: NCI-H23 lung
NCI-H460 lung = test system: NCI-H460 lung
OVCAR-5 ovarian = test system: OVCAR-5 ovarian
OVCAR-8 ovarian = test system: OVCAR-8 ovarian
SF-268 CNS = test system: SF-268 CNS
SF-539 CNS = test system: SF-539 CNS
SK-OV-3 ovarian = test system: SK-OV-3 ovarian
SNB-19 CNS = test system: SNB-19 CNS
BT-549 breast = test system: BT-549 breast
HCC-2998 colon = test system: HCC-2998 colon
HS 578T breast = test system: HS 578T breast
NCI/ADR-RES ovarian = test system: NCI/ADR-RES ovarian
MDA-MB-435 = test system: MDA-MB-435

SMILES	TGI (CAKI-1 renal) [µM]	TGI (HOP-62 NSCLC) [µM]	TGI (HOP-92 NSCLC) [µM]	TGI (HT29 colon) [µM]	TGI (KM12 colon) [µM]	TGI (NCI-H23 lung) [µM]	TGI (NCI-H460 lung) [µM]	TGI (OVCAR-5 ovarian) [µM]	TGI (OVCAR-8 ovarian) [µM]	TGI (SF-268 CNS) [µM]	TGI (SF-539 CNS) [µM]	TGI (SK-OV-3 ovarian) [µM]	TGI (SNB-19 CNS) [µM]	TGI (BT-549 breast) [µM]	TGI (HCC-2998 colon) [µM]	TGI (HS 578T breast) [µM]	TGI (NCI/ADR-RES ovarian) [µM]	TGI (MDA-MB-435) [µM]
O=c1[nH]c(Br)nc2c(N3CCCCC3)c[nH]c12	> 100	> 100	> 100	> 100	> 100	> 100	> 100	> 100	> 100	> 100	> 100	> 100	> 100	–	–	–	–	–
CC(C)[Si](OC1=CCC[C@H]2NC(=O)[C@@H](Cc3ccc([N+](=O)[O-])cc3)[C@@]12C)(C(C)C)C(C)C	26.2	17.3	–	5.13	13.1	18.6	10.5	21.2	24.4	24.8	5.41	21.7	25.9	13.2	4.22	25.1	28	–
C[Si](C)(C)C#CCOC=C1CC1	> 100	> 100	–	> 100	> 100	> 100	> 100	> 100	> 100	> 100	> 100	> 100	> 100	> 100	> 100	> 100	> 100	–
CC(C)=C=CC(C)(C)NS(=O)(=O)NC(C)(C)C=C=C(C)C	> 100	> 100	> 100	> 100	> 100	> 100	> 100	> 100	> 100	> 100	> 100	> 100	> 100	–	> 100	> 100	> 100	> 100
O=C(NC(Cc1ccccc1)P(=O)(O)c1ccccc1)OCc1ccccc1 (stereo not given)	> 100	> 100	> 100	> 100	> 100	> 100	> 100	> 100	> 100	> 100	–	> 100	> 100	> 100	–	> 100	> 100	> 100
NC(=O)N=Nc1c2ccccc2n2[nH]ccc12	> 100	> 100	> 100	> 100	> 100	> 100	> 100	> 100	> 100	> 100	> 100	> 100	> 100	–	> 100	> 100	> 100	> 100
COc1cccc(-c2cc(=O)c3cc(N4CCCC4)ccc3[nH]2)c1	> 10	> 10	> 10	–	0.0111	0.0962	1.42	> 10	0.00128	> 10	< 0.001	–	< 0.001	–	0.013	> 10	< 0.001	< 0.001
